Measurements from the METLIN SMRT retention time set (Domingo-Almenara et al. 2019).

Assay: gradient 5% acetonitrile 3 min, to 50% in 2 min, to 85% in 15 min, held 3 min, 100 µL/min
Details: column: Zorbax Extend-C18 2.1 x 50 mm; eluents: water / acetonitrile, 0.1% formic acid
Summary of the method: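 The mobile phases were water and acetonitrile, each with 0.1% formic acid, pumped at 100 μL/min through a Zorbax Extend-C18 column (2.1 × 50 mm, 1.8 μm). Pure standards were injected as mixtures of ~100 molecules and detected by a quadrupole time-of-flight mass spectrometer in positive and negative ionization mode. Retention time came from computationally picked adduct peaks, each inspected by hand.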

Row | RP-LC retention time | Structure (SMILES)
1 | 701 s | CCCc1noc(-c2cccnc2N2CCCN(Cc3ccccc3F)CC2)n1
2 | 903 s | CC(C)(C)C(=O)NCCN1C(=O)C2(CCCCC2)C1c1ccccc1 (stereo not given)
3 | 597 s | Cn1nnnc1NCc1ccc2c(c1)n(C)c(=O)n2C
4 | 777 s | COC(=O)C1=CN(c2ccccc2)c2ccccc2S1(=O)=O
5 | 715 s | COc1ccc(C(=O)N2CCC3(CC2)NC(=O)c2cc(F)ccc2N3C)cc1OC
6 | 827 s | Cn1nc(N2CCCC(NC(=O)c3cc4cc(Cl)ccc4[nH]3)C2)ccc1=O (stereo not given)
7 | 823 s | O=C(Nc1ccc(-n2cnnn2)cc1)c1ccc(OCc2nc(C3CC3)cs2)cc1
8 | 784 s | CCOC(=O)c1c(CN2CCOCC2)n(C)c2cc(-c3cccnc3)c3c(c12)CN(C)CO3
9 | 879 s | COc1ccc(-c2nc3cccnc3n2C2CCN(C(=O)NC3CCCC3)C2)cc1 (stereo not given)
10 | 748 s | Cn1c(=O)n(CC(=O)O)c(=O)c2c1nc1n2CCN1c1ccc(Cl)cc1
11 | 790 s | CC(C)n1nnc2cc(C(=O)N(C)CC(=O)Nc3ccc(F)c(Cl)c3)ccc21
12 | 639 s | CN(C)C[C@@H]1CN(Cc2ccncc2)C[C@H]1NS(=O)(=O)c1ccc(C#N)cc1
13 | 814 s | Cc1nnc(-c2c(S(=O)(=O)NC3CCCCC3)c(C)n(C)c2C)o1
14 | 808 s | COc1ccc(-c2nnc(NC(=O)c3ccc(S(=O)(=O)N(C)C)cc3)s2)c(OC)c1
15 | 687 s | CN1C(=O)c2[nH]nc(-c3ccccc3)c2C1c1cccc(O)c1 (stereo not given)
16 | 899 s | O=C(NCc1cccc(Br)c1)C1CCCN(c2ccc(=O)n(-c3cccc(F)c3)n2)C1 (stereo not given)
17 | 763 s | CC(=O)Nc1onc(C)c1-c1ccc(C)c(S(=O)(=O)N2CCN(c3ncccn3)CC2)c1
18 | 769 s | CCNC(=O)CN1C(=O)CCCc2cc(S(=O)(=O)N3CCC(C)CC3)ccc21
19 | 574 s | O=C(NC1CC1)c1ccc(N2CCC(NCc3ccc(Cl)cc3)C2)nc1 (stereo not given)
20 | 908 s | Cc1ccc(CNC(=O)c2ccc3c(c2)N(C)C(=O)C2CCCCN32)cc1 (stereo not given)
21 | 896 s | Cc1ccc([N+](=O)[O-])cc1NC(=O)Cc1cc(-c2ccc(F)cc2)on1
22 | 646 s | COc1cc(NC(=O)COc2ccc(-c3nnc4n3CCCC4)cc2)cc(OC)c1OC
23 | 774 s | CCN1C(=O)C2(CCN(S(=O)(=O)CC)CC2)c2ccccc21

Row | RP-LC retention time | Structure (SMILES)
24 | 727 s | Cc1cccn2c(Nc3ccc4c(c3)OCCO4)c(-c3cccc(Cl)c3)nc12
25 | 941 s | COc1cccc(N2CCN(c3ccnc(SCC(=O)Nc4ccc(Cl)cc4F)n3)CC2)c1
26 | 831 s | CN(C1CCc2nn(CC3CC3)c(=O)n2CC1)S(=O)(=O)c1ccccc1C(F)(F)F (stereo not given)
27 | 839 s | CCn1nc(CNC(=O)c2ccc(F)cc2)c2ccccc21
28 | 797 s | Cc1[nH]c(C(=O)N2CCC(CC(=O)NCc3ccc4c(c3)OCO4)CC2)c(C)c1C(=O)OC(C)C
29 | 724 s | CCCNC(=O)C1CCN(c2ccc(SCC(=O)Nc3cc(F)ccc3Cl)nn2)CC1
30 | 631 s | CCOC(=O)N1CCN(C(=O)C2CCC(CNS(=O)(=O)CC)CC2)CC1 (stereo not given)
31 | 1240 s | CCOc1ccc(-c2csc(NC(=O)CCCOc3ccccc3C)n2)cc1
32 | 697 s | O=C(Nc1ccc2c(c1)OCCO2)C1CCN(C(=O)c2cccc(F)c2)CC1
33 | 1090 s | CCn1nnc(NCc2ccc(-c3ccc(C)c(Cl)c3)o2)n1
34 | 677 s | O=C(Nc1c(-c2ccccc2)nc2ccccn12)c1ccc(Cl)cc1Cl
35 | 718 s | COc1ccccc1C(=O)NC1CCN(c2cc(-c3ccccc3)[nH]n2)C1 (stereo not given)
36 | 700 s | Cc1cccc(-n2nc(C)c3sc(N(C)CC(=O)N4CCN(c5ccccn5)CC4)nc32)c1
37 | 671 s | CCCC(=O)N1CCCC(c2nc(CNC(=O)C(C)C)cs2)C1 (stereo not given)
38 | 788 s | COc1ccc(-c2c(C)noc2NC(C)=O)cc1S(=O)(=O)N1CCCCCC1
39 | 912 s | CCn1cc(-c2nc(CC(=O)NCc3ccc(C)cc3)cs2)c2cccnc21
40 | 746 s | O=C(CN1C(=O)NC2(CCCCC2)C1=O)NCc1ccccc1Cl
41 | 595 s | N=C(N)c1ccc2cc(OC(=O)c3ccc(N=C(N)N)cc3)ccc2c1
42 | 789 s | Cc1cccc(Cn2cc(S(=O)(=O)N3CCOCC3)ccc2=O)c1
43 | 746 s | COc1ccc(C2CCCN2C(=O)c2c(C)noc2C)cc1 (stereo not given)
44 | 613 s | O=C(NCc1ccccc1Cl)c1cn2c(n1)CCCC2
45 | 598 s | CCN(CC)c1ccc(NC(=O)c2nc3nc(C)cc(C(F)F)n3n2)cc1
46 | 944 s | COC(=O)c1cc2c(=O)n(-c3cc(Cl)ccc3Cl)ccc2nc1C

Row | RP-LC retention time | Structure (SMILES)
47 | 629 s | CCn1cc(C)c(C(=O)O)c1CC(=O)NCCN1CCc2ccccc2C1
48 | 1030 s | CCOc1ccc(-c2nc(CSCC(=O)NCc3cccs3)c(C)o2)cc1
49 | 646 s | O=C1NCCCCCCN(Cc2ccc(F)cc2F)[C@H]2CCC[C@@H]12
50 | 754 s | CCCS(=O)(=O)N1CCOc2ccc(NC(=O)C3CC3)cc2C1
51 | 668 s | CN(C)c1cccc(C(=O)NC2CCN(c3cc(-c4cccs4)[nH]n3)C2)c1 (stereo not given)
52 | 541 s | O=C(CCC1CCN(c2cc(NC3CC3)ncn2)CC1)NCc1ccccn1
53 | 728 s | COc1ccc(NC(=O)N2CCC3(CC2)NC(=O)c2ccccc2O3)c(OC)c1
54 | 736 s | COc1ccc(C(=O)N2CCN(c3ccc(-c4nc(C)cs4)cn3)CC2)cc1OC
55 | 978 s | O=C(CSCc1ccccc1)Nc1ccccc1Cl
56 | 616 s | Cn1cc(CCN2CCC(C(=O)NC3CCCCCC3)CC2)c2cccnc21
57 | 958 s | CCCS(=O)(=O)c1nc2ccc(NS(=O)(=O)c3cc(C)ccc3C)cc2s1
58 | 812 s | O=C(Cc1ccccc1)N1CCCCC1c1nc(-c2cnccn2)no1 (stereo not given)
59 | 1180 s | CC(C)c1ccc(-c2ccnc3c(C(=O)NCCCc4ccco4)cnn23)cc1
60 | 854 s | CCc1cccc(C)c1NC(=O)CCC(=O)N1CCOc2ccccc21
61 | 1230 s | CCOc1ccc(-c2ccc(=O)n(Cc3nc(-c4ccc(CC)cc4)no3)n2)cc1
62 | 917 s | Cc1cc(=O)n(Cc2ccc(F)cc2)c(N2CCSCC2)n1
63 | 866 s | Cc1cc(COC(=O)c2cc3ccccc3o2)no1
64 | 778 s | COc1ccc(C(=O)Nc2nsc(-c3ccccc3)n2)cc1
65 | 1270 s | CC1CCCCN1S(=O)(=O)c1ccc(C(=O)Nc2nc3c(s2)CCc2ccccc2-3)cc1 (stereo not given)
66 | 1170 s | COc1cccc(-c2csc(-c3nnn(-c4cccc(Cl)c4)c3N)n2)c1
67 | 900 s | Cc1nc(-c2ccc(C(=O)NC3CCCCC3)cc2)cs1
68 | 1140 s | CC(C)c1ccc(-n2ccnc(NC(=O)Nc3cccc(F)c3)c2=O)cc1
69 | 899 s | O=C(NCCn1ccc2ccccc21)C(=O)c1c[nH]c2ccccc12

Row | RP-LC retention time | Structure (SMILES)
70 | 1060 s | Cc1c(-c2noc(-c3ccccc3)n2)nnn1Cc1ccccc1
71 | 837 s | CCCSc1ncnc2[nH]ncc12
72 | 688 s | Fc1ccc(OCc2cn(C3CN(Cc4cccc(F)c4)C3)nn2)cc1
73 | 946 s | O=C(Cn1cccc1-c1nnc(C2CCC2)o1)N1CCc2ccccc21
74 | 775 s | CCOCCCNC(=O)C1CCN(c2cc(Sc3cc(C)ccc3C)ncn2)CC1
75 | 788 s | COc1ccc(NC(=O)c2ccc(-c3ccc(-c4noc(C)n4)cc3C)cc2)cc1OCCN(C)C
76 | 822 s | CCOC(=O)c1oc2ccc(S(=O)(=O)N3CCCC(c4nn[nH]n4)C3)cc2c1C (stereo not given)
77 | 638 s | CCN1C(=O)c2cccnc2Sc2cc(CNC(=O)C3CCN(C(C)=O)CC3)ccc21
78 | 575 s | CC(C)CCN1CCc2[nH]nc(C(=O)N(C)C)c2C1
79 | 625 s | CCCNC(=O)c1c2c(nc3ccc(C)cc13)CCC2
80 | 940 s | Cc1cccc2c(=O)n(C3CCN(S(=O)(=O)c4ccccc4F)CC3)cnc12
81 | 794 s | CCCNC(=O)N1CCCN(C2=NS(=O)(=O)C(c3ccc(Cl)cc3)=C2C)CC1
82 | 1280 s | O=C(COc1ccccc1)Nc1ccc(-c2nc(-c3ccc(Cl)cc3)no2)cc1
83 | 848 s | COc1ccc(CNC(=O)C(C)n2sc3ccccc3c2=O)cc1OC (stereo not given)
84 | 787 s | CCc1noc(NC(C)=O)c1-c1ccc(C)c(S(=O)(=O)NC(C)CC)c1 (stereo not given)
85 | 955 s | COc1ccc(NC(=O)CSc2nccnc2Oc2ccc(C)cc2)cc1OC
86 | 628 s | Cn1cnc(S(=O)(=O)N2CCC(c3noc(-c4ccncc4)n3)C2)c1 (stereo not given)
87 | 626 s | O=S(=O)(Nc1cccc(-c2cn3ccccc3n2)c1)c1ccccc1
88 | 695 s | CCOC(=O)COc1cc(O)cc2oc(-c3ccccc3)cc(=O)c12
89 | 935 s | CCOC(=O)Oc1c(OC)cc(C(=O)O[C@@H]2C[C@@H]3CN4CCc5c([nH]c6cc(OC)ccc56)[C@H]4C[C@@H]3[C@H](C(=O)OC)[C@H]2OC)cc1OC

Row | Structure (SMILES) | RP-LC retention time
90 | O=C(c1ccoc1)N1[C@H]2CC[C@@H]1c1cnc(-c3ccccc3)nc1C2 | 837 s
